From ChEMBL document CHEMBL1201862, “PubChem BioAssay data set” (2004)
Active and inactive are the calls of the source.

Experiments:
[1] = Cytotoxicity screening for potential Inhibitors of Bacterial Capsule Biogenesis. [Related pubchem assays (depositor defined):AID488970]; assay type: functional
[2] = target: T1, Voltage-dependent T-type calcium channel subunit alpha-1H (Homo sapiens, UniProt O95180); assay type: functional
[3] = target: UDP-galactopyranose mutase (Mycobacterium tuberculosis, UniProt P9WIQ1); assay: Inhibitors of Mycobacterium tuberculosis UDP-galactopyranose mutase (UGM) enzyme Measured in Biochemical System Using Plate Reader - 2105-02_Inhibitor_Dose_CherryPick_Activity. [Related pubchem assays (depositor defined):AID504439]
UDP-galactopyranose mutase, sequence (P9WIQ1 whole entry): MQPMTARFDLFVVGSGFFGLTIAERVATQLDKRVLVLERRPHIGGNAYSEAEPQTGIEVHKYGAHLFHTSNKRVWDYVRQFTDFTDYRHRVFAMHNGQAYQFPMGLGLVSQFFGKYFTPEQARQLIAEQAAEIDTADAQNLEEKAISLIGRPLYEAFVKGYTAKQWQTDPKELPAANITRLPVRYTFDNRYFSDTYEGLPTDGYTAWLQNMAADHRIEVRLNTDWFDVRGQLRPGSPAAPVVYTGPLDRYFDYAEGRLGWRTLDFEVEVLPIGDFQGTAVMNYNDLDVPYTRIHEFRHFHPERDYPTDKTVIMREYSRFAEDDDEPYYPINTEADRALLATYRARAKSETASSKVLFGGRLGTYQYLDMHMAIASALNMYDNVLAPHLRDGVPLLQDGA

[4] = target: T1, Voltage-dependent T-type calcium channel subunit alpha-1H; assay: Inhibitors of T-Type Calcium Channels. [Related pubchem assays (depositor defined):AID449739, AID463087, AID489005, AID493041, AID504579, AID504584, AID504619, AID504628]; assay type: functional
ORF 73 = ORF 73 (Human herpesvirus 8, UniProt O40947); assay: inhibitors of C-LANA binding to LBS DNA, dose response, biochemical, fluorescence polarization, cherry-picked samples (AID 504725); set-up: species or system Human gammaherpesvirus 8;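 also: fluorescence polarization of a labeled DNA duplex reporting LANA DNA binding; potency is for inhibitors that block LANA binding to the DNA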
ORF 73, sequence (O40947 whole entry): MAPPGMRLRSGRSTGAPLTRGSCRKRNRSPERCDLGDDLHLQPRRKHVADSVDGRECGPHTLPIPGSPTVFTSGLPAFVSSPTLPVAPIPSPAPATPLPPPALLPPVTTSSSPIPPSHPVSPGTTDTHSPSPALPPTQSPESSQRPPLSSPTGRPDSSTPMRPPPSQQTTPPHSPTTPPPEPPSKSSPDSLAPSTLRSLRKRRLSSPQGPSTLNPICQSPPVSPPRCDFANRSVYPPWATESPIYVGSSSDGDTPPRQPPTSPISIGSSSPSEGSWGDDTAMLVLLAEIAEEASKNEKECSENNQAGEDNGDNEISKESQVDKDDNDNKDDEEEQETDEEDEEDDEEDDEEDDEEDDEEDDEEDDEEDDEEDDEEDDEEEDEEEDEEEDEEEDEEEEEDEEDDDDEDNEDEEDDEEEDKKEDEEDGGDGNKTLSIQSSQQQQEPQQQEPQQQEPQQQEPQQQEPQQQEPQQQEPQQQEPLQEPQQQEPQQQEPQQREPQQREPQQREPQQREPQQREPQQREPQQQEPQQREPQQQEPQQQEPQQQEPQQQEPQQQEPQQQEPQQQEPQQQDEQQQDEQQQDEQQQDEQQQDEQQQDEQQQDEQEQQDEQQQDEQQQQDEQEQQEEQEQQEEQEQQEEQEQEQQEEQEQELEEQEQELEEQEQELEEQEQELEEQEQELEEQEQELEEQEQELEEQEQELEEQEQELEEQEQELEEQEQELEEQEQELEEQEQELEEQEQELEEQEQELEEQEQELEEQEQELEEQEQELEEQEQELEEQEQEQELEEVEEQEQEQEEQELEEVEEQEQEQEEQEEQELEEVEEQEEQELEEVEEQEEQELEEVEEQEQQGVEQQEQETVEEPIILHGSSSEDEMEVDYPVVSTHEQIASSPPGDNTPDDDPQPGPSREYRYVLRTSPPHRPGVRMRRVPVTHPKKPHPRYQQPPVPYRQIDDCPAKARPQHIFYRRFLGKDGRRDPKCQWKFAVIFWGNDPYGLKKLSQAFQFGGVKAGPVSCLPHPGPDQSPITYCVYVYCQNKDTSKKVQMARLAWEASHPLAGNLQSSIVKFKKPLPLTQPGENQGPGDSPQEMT

HeLa = assay: HeLa cell cytotoxicity, dose response, cytotoxicity control, 24 h, cherry-picked samples (AID 504726); assay type: functional, cell-based; settings: Homo sapiens;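 also: potency for cytotoxicity as loss of luminescence signal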
[5] = target: T2, Endoribonuclease toxin MazF (Escherichia coli K-12, UniProt P0AE70); assay: MazF toxin RNase activators, dose response, biochemical, fluorescence, single-stranded RNA substrate, uHTS hits (AID 588481); assay type: functional
T2 sequence (P0AE70 whole entry): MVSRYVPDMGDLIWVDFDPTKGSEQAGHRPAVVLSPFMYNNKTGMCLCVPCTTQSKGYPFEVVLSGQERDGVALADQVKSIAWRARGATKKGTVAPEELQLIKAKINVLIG

[6] = target: T2, Endoribonuclease toxin MazF; assay: fluorescent RNA oligo signal without MazF, dose response, counter-screen for MazEF activator project, biochemical, fluorescence, single-stranded RNase substrate (AID 588502); assay type: functional
[7] = Luminescence Cell-Based Dose Response HTS to Identify Activators of 5'UTR Stem-Loop Driven Prion Protein mRNA Translation in H4-C Neuroglioblastoma Cells. [Related pubchem assays: 1829 (Project Summary), 1814 (Primary HTS)]; assay type: functional
[8] = Luminescence Cell-Based Dose Response to Identify Activators of Luciferase Translation or Activity in H4-C Neuroglioblastoma Cells. [Related pubchem assays: 1829 (Project Summary), 1814 (Primary HTS)]; assay type: functional
H4 = assay: Luminescence Cell-Based Dose Response HTS to Identify Activators of 5'UTR Stem-Loop Driven Prion Protein mRNA Translation in H4 Neuroglioblastoma Cells. [Related pubchem assays: 1829 (Project Summary), 1814 (Primary HTS)]; assay type: functional; settings: Homo sapiens
[9] = Luminescence Cell-Based Dose Response HTS to Identify Activators of Luciferase Translation or Activity in H4-C Neuroglioblastoma Cells. [Related pubchem assays: 1829 (Project Summary), 1814 (Primary HTS)]; assay type: functional
[10] = Luminescence Cell-Based Dose Confirmation to Identify Activators of 5'UTR Stem-Loop Driven Alpha-Synuclein mRNA Translation in H4 Neuroglioblastoma Cells. [Related pubchem assays: 1829 (Project Summary), 1814 (Primary HTS)]; assay type: functional
[11] = Luminescence Cell-Based Dose Confirmation HTS to Identify Activators of 5'UTR Stem-Loop Driven Alpha-Synuclein mRNA Translation in H4 Neuroglioblastoma Cells. [Related pubchem assays: 1829 (Project Summary), 1814 (Primary HTS)]; assay type: functional
[12] = Luminescence Cell-Based Dose Response HTS to Identify Activators of Luciferase Translation or Activity in H4 […] Cells. [Related pubchem assays: 1829 (Project Summary), 1814 (Primary HTS)]; assay type: functional
[13] = Luminescence Cell-Based Dose Retest to Confirm Activators of 5'UTR Stem-Loop Driven Alpha-Synuclein mRNA Translation in H4 Neuroglioblastoma Cells. [Related pubchem assays (depositor defined):AID1813, AID1829]; assay type: functional
[14] = Luminescence Cell-Based Dose Response to Identify Activators of 5'UTR Stem-Loop Driven Prion Protein mRNA Translation in H4-C Neuroglioblastoma Cells. [Related pubchem assays: 1829 (Project Summary), 1814 (Primary HTS)]; assay type: functional
Tumor necrosis factor = Tumor necrosis factor (Homo sapiens, UniProt P01375); assay: TNFa-triggered NF-kB activation inhibitors, SAR follow-up, cell-based, revised (AID 2337); assay type: functional
Tumor necrosis factor, sequence (P01375 whole entry, the tested form may be a part): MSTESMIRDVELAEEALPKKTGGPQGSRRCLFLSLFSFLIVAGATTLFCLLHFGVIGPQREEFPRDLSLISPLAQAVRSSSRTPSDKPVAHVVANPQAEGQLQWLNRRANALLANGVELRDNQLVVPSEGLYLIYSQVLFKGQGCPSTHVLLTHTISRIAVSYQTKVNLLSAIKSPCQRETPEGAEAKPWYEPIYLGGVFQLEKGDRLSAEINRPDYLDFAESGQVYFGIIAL

[15] = target: Nucleotide-binding oligomerization domain-containing protein 2 (Homo sapiens, UniProt Q9HC29); assay: PubChem AID 2334; assay type: functional
Nucleotide-binding oligomerization domain-containing protein 2, sequence (Q9HC29 whole entry, the tested form may be a part): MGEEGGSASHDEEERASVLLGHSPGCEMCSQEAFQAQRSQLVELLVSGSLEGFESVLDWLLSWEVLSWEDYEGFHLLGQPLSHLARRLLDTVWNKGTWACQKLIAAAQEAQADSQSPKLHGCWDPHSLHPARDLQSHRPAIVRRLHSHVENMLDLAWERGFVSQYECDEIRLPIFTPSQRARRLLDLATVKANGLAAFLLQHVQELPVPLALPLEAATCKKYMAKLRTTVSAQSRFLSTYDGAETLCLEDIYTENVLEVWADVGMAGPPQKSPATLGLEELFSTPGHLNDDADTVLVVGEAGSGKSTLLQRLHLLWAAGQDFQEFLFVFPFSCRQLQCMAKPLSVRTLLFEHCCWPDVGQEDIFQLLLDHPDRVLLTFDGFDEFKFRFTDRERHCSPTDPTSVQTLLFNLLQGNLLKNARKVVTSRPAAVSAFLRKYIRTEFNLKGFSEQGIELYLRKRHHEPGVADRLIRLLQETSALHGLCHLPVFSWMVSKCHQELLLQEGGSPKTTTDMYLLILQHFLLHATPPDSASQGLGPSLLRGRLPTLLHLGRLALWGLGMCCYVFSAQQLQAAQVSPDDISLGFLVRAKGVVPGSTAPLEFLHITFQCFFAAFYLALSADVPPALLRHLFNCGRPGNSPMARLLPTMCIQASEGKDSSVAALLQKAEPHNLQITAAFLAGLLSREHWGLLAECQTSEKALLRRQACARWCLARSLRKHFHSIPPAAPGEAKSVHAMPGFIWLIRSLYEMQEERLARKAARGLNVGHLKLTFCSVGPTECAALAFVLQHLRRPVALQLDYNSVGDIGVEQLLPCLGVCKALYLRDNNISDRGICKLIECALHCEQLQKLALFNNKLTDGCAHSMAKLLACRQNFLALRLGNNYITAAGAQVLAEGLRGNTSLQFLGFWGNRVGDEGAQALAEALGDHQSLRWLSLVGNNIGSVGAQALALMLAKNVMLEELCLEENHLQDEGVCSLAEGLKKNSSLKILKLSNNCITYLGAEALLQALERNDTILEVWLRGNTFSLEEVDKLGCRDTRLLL

HEK293 = assay: cells; settings: Homo sapiens;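 also: cells exposed to compound for 14 hours overnight before viability readout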
[16] = target: T3, Nucleotide-binding oligomerization domain-containing protein 1 (Homo sapiens, UniProt Q9Y239); assay: NOD1 signaling inhibitors, SAR follow-up, revised (AID 2333); assay type: functional
T3 sequence (Q9Y239 whole entry): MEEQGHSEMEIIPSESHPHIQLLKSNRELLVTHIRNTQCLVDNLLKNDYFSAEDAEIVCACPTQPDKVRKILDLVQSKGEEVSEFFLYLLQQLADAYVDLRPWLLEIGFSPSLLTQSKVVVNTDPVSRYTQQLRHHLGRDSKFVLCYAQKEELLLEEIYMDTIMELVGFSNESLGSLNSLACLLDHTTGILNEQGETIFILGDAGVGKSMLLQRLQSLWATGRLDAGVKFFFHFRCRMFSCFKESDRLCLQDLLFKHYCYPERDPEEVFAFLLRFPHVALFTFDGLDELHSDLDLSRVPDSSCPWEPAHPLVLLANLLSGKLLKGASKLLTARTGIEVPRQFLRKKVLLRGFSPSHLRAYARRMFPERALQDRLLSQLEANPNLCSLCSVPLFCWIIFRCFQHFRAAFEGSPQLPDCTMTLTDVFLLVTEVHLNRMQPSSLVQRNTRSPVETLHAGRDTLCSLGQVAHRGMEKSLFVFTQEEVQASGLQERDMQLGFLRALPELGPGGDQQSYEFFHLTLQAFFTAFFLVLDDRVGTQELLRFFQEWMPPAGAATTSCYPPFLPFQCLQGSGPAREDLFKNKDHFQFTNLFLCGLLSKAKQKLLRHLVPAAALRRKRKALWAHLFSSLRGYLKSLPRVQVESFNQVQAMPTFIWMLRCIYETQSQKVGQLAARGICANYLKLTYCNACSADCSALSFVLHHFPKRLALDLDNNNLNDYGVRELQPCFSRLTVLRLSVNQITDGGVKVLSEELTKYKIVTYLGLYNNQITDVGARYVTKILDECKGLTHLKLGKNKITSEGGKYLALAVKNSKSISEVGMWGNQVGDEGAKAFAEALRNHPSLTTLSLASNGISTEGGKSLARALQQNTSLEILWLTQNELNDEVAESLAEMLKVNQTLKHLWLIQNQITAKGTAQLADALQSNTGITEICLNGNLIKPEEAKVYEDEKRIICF

Interleukin-8 [17] = target: T4, Interleukin-8 (Homo sapiens, UniProt P10145); assay: SAR analysis of Tumor necrosis factor alpha (TNF-alpha) induced IL-8 secretion in MCF-7/NOD1 cells - Set 2. [Related pubchem assays (depositor defined):AID1575, AID2250, AID2260]; assay type: functional, cell-based
T4 sequence (P10145 whole entry): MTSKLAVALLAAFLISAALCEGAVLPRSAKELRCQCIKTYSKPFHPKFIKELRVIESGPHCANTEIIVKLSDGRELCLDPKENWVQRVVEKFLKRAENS

[18] = target: T3, Nucleotide-binding oligomerization domain-containing protein 1; assay: SAR analysis of NF-kappaB dependent luciferase using DAP as an inducer - Set 2. [Related pubchem assays (depositor defined):AID1566, AID1575, AID1578, AID1579, AID1849, AID1852, AID2264]; assay type: functional
Interleukin-8 [19] = target: T4, Interleukin-8; assay: SAR analysis of GM-Tri-DAP induced IL-8 secretion in MCF-7/NOD1 cells - Set 2. [Related pubchem assays (depositor defined):AID1575, AID1578, AID2333]; assay type: functional, cell-based

T1 sequence (O95180 whole entry): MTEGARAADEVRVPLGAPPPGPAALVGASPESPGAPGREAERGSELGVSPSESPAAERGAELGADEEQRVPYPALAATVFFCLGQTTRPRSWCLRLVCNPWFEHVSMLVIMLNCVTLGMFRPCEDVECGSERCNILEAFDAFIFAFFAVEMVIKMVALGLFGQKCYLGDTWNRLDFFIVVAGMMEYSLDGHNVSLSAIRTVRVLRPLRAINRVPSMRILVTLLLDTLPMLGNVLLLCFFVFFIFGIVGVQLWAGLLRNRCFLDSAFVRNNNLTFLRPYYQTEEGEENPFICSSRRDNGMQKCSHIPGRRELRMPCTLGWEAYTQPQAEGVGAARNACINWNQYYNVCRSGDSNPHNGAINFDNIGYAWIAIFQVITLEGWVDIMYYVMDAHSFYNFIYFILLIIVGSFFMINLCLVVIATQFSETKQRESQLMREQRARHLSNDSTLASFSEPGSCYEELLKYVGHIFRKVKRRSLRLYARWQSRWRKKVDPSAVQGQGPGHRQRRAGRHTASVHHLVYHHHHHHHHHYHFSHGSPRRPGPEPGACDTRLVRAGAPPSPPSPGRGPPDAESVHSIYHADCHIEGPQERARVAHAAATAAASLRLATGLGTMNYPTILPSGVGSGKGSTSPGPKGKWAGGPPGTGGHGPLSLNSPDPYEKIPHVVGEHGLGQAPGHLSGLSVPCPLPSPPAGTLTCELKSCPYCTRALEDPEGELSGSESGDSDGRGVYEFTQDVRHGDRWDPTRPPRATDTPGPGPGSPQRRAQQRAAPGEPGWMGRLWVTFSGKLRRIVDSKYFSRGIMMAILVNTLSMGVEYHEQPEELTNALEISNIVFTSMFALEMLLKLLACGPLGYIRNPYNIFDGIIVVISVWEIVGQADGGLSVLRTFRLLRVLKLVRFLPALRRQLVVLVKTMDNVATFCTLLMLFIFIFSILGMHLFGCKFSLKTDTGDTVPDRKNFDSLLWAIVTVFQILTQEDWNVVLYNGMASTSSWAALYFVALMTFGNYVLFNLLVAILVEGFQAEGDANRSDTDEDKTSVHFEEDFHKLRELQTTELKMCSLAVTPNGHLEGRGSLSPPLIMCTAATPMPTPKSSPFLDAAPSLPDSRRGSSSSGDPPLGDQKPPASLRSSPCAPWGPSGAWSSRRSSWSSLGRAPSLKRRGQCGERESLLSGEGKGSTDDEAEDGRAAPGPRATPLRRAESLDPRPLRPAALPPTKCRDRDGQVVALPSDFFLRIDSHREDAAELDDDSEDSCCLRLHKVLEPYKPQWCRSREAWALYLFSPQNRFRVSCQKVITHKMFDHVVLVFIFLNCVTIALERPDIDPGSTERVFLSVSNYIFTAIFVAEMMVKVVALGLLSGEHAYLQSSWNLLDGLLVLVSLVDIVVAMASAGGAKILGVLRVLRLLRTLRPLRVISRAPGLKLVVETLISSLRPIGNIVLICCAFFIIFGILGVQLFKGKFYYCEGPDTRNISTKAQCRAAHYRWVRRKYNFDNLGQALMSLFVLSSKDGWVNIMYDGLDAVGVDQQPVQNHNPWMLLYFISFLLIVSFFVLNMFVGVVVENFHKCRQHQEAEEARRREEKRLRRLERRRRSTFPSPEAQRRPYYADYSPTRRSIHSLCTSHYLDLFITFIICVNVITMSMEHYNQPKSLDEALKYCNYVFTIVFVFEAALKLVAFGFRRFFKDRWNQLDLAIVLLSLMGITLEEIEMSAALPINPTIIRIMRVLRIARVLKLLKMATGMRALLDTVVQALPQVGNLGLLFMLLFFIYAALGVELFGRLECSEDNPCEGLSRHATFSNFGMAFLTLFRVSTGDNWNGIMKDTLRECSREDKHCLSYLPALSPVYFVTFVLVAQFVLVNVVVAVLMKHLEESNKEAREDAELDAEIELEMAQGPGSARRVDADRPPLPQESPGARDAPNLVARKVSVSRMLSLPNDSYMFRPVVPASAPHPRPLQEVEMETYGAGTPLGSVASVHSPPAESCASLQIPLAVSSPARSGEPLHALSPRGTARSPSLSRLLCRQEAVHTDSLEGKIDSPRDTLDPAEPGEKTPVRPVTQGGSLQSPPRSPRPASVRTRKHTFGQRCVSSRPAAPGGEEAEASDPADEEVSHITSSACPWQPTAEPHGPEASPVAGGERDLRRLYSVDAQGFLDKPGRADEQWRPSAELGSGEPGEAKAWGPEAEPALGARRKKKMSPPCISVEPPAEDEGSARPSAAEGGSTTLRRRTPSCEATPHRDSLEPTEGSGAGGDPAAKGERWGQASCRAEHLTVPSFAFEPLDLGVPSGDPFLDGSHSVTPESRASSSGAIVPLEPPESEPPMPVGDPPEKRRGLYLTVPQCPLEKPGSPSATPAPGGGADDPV

For O=C(NCc1cc([N+](=O)[O-])ccc1O)c1cccnc1Sc1ccccc1, which CC50 [1] is on record?
Its CC50 is > 100 µM (active).

Which EC50 [2] does the source give for Nc1c(C(=O)Nc2ccccc2F)sc2nc(Cc3ccccc3)cc(C(F)(F)F)c12 here?
Its EC50 is 2.71 µM (active).

What about the AC50 [3] of the same compound?
Its AC50 is 98.6 µM (active).

And the EC50 [4]?
Its EC50 is 1.9 µM (active).

And the AC50 (ORF 73)?
The AC50 was 16.1 µM (active).

And the AC50 (HeLa)?
The AC50 was 95.9 µM (active).

And the EC50 [5]?
Its EC50 is 17.4 µM (active).

And the EC50 [6]?
The EC50 was > 99 µM (inactive).

For C=CCc1ccc(OCCn2nnc3ccccc32)c(OC)c1, which EC50 [7] is on record?
The EC50 was > 195 µM (not active).

And the EC50 [8]?
Its EC50 is 3.71 µM (active).

And the EC50 (H4)?
The EC50 was 8.33 µM (active).

What about the EC50 [9] of the same compound?
Its EC50 is 0.772 µM (active).

And the EC50 [10]?
The EC50 was > 12 µM (not active).

What about the EC50 [11] of the same compound?
The EC50 was < 0.1 µM (active).

What about the EC50 [12] of the same compound?
Its EC50 is 4.24 µM (active).

What about the EC50 [13] of the same compound?
The EC50 was > 195 µM (inactive).

And the EC50 [14]?
Its EC50 is 1.49 µM (active).

What does the source list for Nc1nc2ccccc2n1CCOc1ccc(Cl)cc1?
IC50 (Tumor necrosis factor): > 20 µM (inactive); IC50 [15]: > 20 µM (inactive); IC50 (HEK293): > 20 µM (inactive); IC50 [16]: 12.7 µM (active); IC50 (Interleukin-8 [17]): > 25 µM (inactive); IC50 [18]: > 25 µM (inactive); IC50 (Interleukin-8 [19]): 8.6 µM (active)
